Read-outs that look alike come from different tables or passages of the source.
What was measured:
[1] = system: HIF-1α, phospho-PKM2 (Ser37), phospho-β-catenin (Tyr333) in PANC-1 nuclear extracts; test: Western blot of nuclear translocation of cancer biomarkers in PANC-1 nuclear extracts; assay type: cell-based, human; details: PANC-1, 1 μM, 10 minutes, with and without AM251 1 μM 20 minutes
Experimental: Nuclear protein extraction was carried out using a NE-PER Kit followed by the determination of the levels of HIF-1α and phospho-active forms of β-catenin (Tyr333) and PKM2 (Ser37) by immunoblotting. The same experiment was repeated three times on three separate days.
Cells were lysed in radioimmuno precipitation buffer containing EGTA and EDTA (Boston BioProducts, Ashland, Mass.) supplemented with protease inhibitor cocktail (Sigma-Aldrich). Protein concentration in clarified lysates was determined using the bicinchoninic acid reagent (Thermo Fisher Scientific). Proteins (20 μg/well) were separated on 4-12% precast gels (Invitrogen, Carlsbad, Calif.) using SDS-polyacrylamide gel electrophoresis under reducing conditions and then electrophoretically transferred onto polyvinylidenefluoride membrane (Invitrogen). […] All membrane-bound primary antibodies were detected with horseradish peroxidase-conjugated secondary antibodies (Santa Cruz Biotechnology, Dallas, Tex.) and visualized by enhanced chemiluminescence (ECL Plus, GE Healthcare, Piscataway, N.J.). Quantification of the protein bands was performed by volume densitometry using ImageJ software (National Institutes of Health, Bethesda, Md.) and normalization to β-actin or Lamin A/C. […]

[2] = system: phospho-PKM2 (Ser37) in PANC-1 cells; test: Immunofluorescence confocal measurement of nuclear phospho-PKM2; assay type: cell-based, human; details: PANC-1, 1 μM 10 minutes, basal and after AM251 stimulation
Experimental: Measurement of nuclear phospho-PKM2. PANC-1 cells were seeded on Lab-Tek II CC2 chamber slides (Thermo Scientific Nunc, Rochester, N.Y.) and grown until they reached >70% confluence. […] The GPR55 agonist AM251 (1 μM) was added for 20 minutes where indicated. Cells were washed twice with PBS, fixed with 4% (v/v) paraformaldehyde (Sigma-Aldrich) in PBS for 20 minutes at room temperature, followed by 3×PBS washes and permeabilization with 0.1% Triton X-100 (Sigma-Aldrich) for 15 minutes. Next, the cells were incubated with 10% goat serum for 1 hour, followed by overnight incubation with rabbit polyclonal anti-phospho-PKM2 antibody (Ser37, 1:200) at 4° C. After 3×PBS washes, Alexa Fluor 488-conjugated goat anti-rabbit antibody (Invitrogen; 1:1000) was added to the slides for 2 hours at room temperature. The slides were washed with PBS and mounted in Prolong Gold antifade mounting medium containing DAPI (4′,6-diamidino-2-phenylindole) (Invitrogen) for nuclear counterstaining. The slides were cured for 24 hours at room temperature in the dark, after which images were acquired with a Zeiss LSM 710 confocal microscope using Carl Zeiss LSM software (Thorn-wood, NY). ImageJ software was used to quantify the changes in the nuclear pool of phospho-PKM2 levels.

[3] = system: AKT phosphorylation (PANC-1 cells); test: Western blot of phospho-active (Ser473) and total AKT in PANC-1 cells; details: PANC-1, 1 μM 10 minutes, basally and after AM251 20 minutes
Experimental: (§4) In the first series of experiments, PANC-1 cells were incubated with media containing vehicle (0.01% DMSO) or MNF (10, 100, 500 and 1000 nM) for 24 hours. The medium was removed, and cells were collected and processed for immunoblot analysis. […] Cell lysates were processed for immunoblot analysis, focusing on the expression of selected cancer cell biomarkers. In the third series of experiments, serum-starved PANC-1 cells were pretreated with vehicle (0.01% DMSO), 1 μM MNF, or 1 μM CID for 10 minutes followed by a 20 minute incubation with and without 1 AM251. Cell lysates were processed for immunoblot analysis and the levels of phospho-active (Ser473) and total forms of AKT were determined. All experiments were repeated three times on three separate days, unless stated otherwise.

GPR55 (PANC-1 cells) = test: Western blot of cancer biomarker and MDR proteins in PANC-1 cell lysates; details: for AM251-induced increase in BCRP expression: PANC-1, antagonist 1 μM before AM251 1 μM
Experimental: as §4
Cells were lysed in radioimmuno precipitation buffer containing EGTA and EDTA (Boston BioProducts, Ashland, Mass.) supplemented with protease inhibitor cocktail (Sigma-Aldrich). Protein concentration in clarified lysates was determined using the bicinchoninic acid reagent (Thermo Fisher Scientific). […] Western blots were performed according to standard methods, which involved a blocking step in Tris-buffered saline/0.1% Tween-20 (TBS-T) supplemented with 5% non-fat milk and incubation with primary antibodies of interest. All membrane-bound primary antibodies were detected with horseradish peroxidase-conjugated secondary antibodies (Santa Cruz Biotechnology, Dallas, Tex.) and visualized by enhanced chemiluminescence (ECL Plus, GE Healthcare, Piscataway, N.J.). Quantification of the protein bands was performed by volume densitometry using ImageJ software (National Institutes of Health, Bethesda, Md.) and normalization to β-actin or Lamin A/C. […] The antibodies were used at the dilution recommended by the manufacturers.

PANC-1 cells [4] = test: [3H]-thymidine incorporation (proliferation / cytotoxicity) in PANC-1 cells; assay type: cell-based, human; details: for IC50: Homo sapiens; for fold decrease in calculated IC50 by MNF pretreatment: PANC-1, MNF 1 μM 24 hours pretreatment
Experimental: (§1) [^3H]-Thymidine incorporation studies. Cells were seeded in 24-well plates at 2.5×10^4 cells per well and grown for 24 hours at 37° C. The effect of MNF (0-10 μM) on [^3H]-thymidine incorporation into PANC-1, MDA-MB-231, and MCF-7 cells was investigated following procedures previously described in Paul, et al., Cannabinoid receptor activation correlates with the proapoptotic action of the β2-adrenergic agonist (R,R′)-4-methoxy-1-naphthylfenoterol in HepG2 hepatocarcinoma cells, J. Pharmacol. Exp. Ther., vol. 343, pgs 157-166 (2012); and Paul, et al., (R,R′)-4′-methoxy-1-naphthylfenoteroltargets GPR55-mediated ligand internalization and impairs cancer cellmotility, Biochem. Pharmacol., vol. 87, pgs 547-561 (2014). The effect of MNF on doxorubicin cytotoxicity in PANC-1 cells was measured using [^3H]-thymidine incorporation. In these studies, the cells were incubated with either fresh medium containing vehicle (0.01% DMSO) or MNF (1 μM) for 24 hours. The spent media was removed and replaced with fresh media supplemented with doxorubicin (0-10 μM) and the cells incubated for an additional 24 hours. [^3H]-Thymidine (1 μCi per well) incorporation into DNA was then performed for 16 hours. Cells were washed with PBS, lysed in 600 μt of 0.1 N NaOH, and the radioactivity was measured by liquid scintillation counting. Three independent experiments were conducted on separate days. Similar experiments were conducted to investigate the effect of MNF on the cytotoxicity of gemcitabine (0-10 μM) in PANC-1 cells. The effects of MNF (1 μM) on the cytotoxicity of doxorubicinin MDA-MB-231 cells and of MNF (0.01 μM) on the cytotoxicity of doxorubicin in U87MG cells were investigated using the protocol described above.
(§2) Sigmoidal dose-response curves (IC50 curves) were determined using the ‘nonlinear regression (curve fit)’ model contained within the Prism 4 software package (GraphPad Software, Inc., La Jolla, Calif.) running on a personal computer. For immunoblot analyses, statistical comparisons between treated and control groups were performed using unpaired Student's t-tests. Data are expressed as relative fold change ±standard deviation. P values ≤0.05 were considered significant.

[5] = system: MDA-MB-231 breast cancer cells; test: [3H]-thymidine incorporation (proliferation / cytotoxicity) in MDA-MB-231 cells; assay type: cell-based, human; details: for IC50: Homo sapiens
Experimental: as §1, §2

MCF-7 cells = test: [3H]-thymidine incorporation (proliferation) in MCF-7 cells; assay type: cell-based, human; details: MCF-7 (low GPR55), MNF 24 hours
Experimental: as §1, with “Similar experiments were conducted to investigate the effect of MNF on the cytotoxicity of gemcitabine (0-10 μM) in PANC-1 cells. The effects of MNF (1 μM) on the cytotoxicity of doxorubicinin MDA-MB-231 cells and of MNF (0.01 μM) on the cytotoxicity of doxorubicin in U87MG cells were investigated using the protocol described above.” left out

PANC-1 cells [6] = test: Intracellular uptake of doxorubicin (fluorescence imaging) in PANC-1 cells; assay type: cell-based, human; details: PANC-1, MNF 1 μM 24 hours, then doxorubicin 0.125 μM 2 hours, vs control cells
Experimental: (§3) PANC-1 and MDA-MB-231 cells were seeded on Lab-Tek II CC2 chamber slides and grown until they reached >70% confluence. The original media was removed and cells were incubated in fresh media supplemented with vehicle (0.01% DMSO) or 1 μM MNF for 24 hours, after which doxorubicin (0.125 μM) was added for an additional 2 hours. The cells were washed with PBS and the images were acquired with a Zeiss axiovert 200 microscope using standard FITC filter (#09 filter set) and Carl Zeiss LSM software. ImageJ software was used to quantify the changes in the nuclear accumulation of doxorubicin defined as ring-shaped regions of interest (ROI).

MDA-MB-231 cells = test: Intracellular uptake of doxorubicin (fluorescence imaging) in MDA-MB-231 cells; assay type: cell-based, human; details: MDA-MB-231, MNF 1 μM 24 hours, then doxorubicin 0.125 μM 2 hours, vs control cells
Experimental: as §3

[7] = system: Pgp, BCRP in PANC-1 nuclear extracts; test: Immunoblot of Pgp and BCRP in PANC-1 nuclear extracts; assay type: cell-based, human; details: MNF 0.5 and 1 μM, 24 hours
Experimental: Values were normalized to PANC-1 cells treated with 0.01% DMSO as control. Data are expressed as mean±SD from 3 independent experiments. FIG. 5C presents fluorescence imaging of intracellular doxorubicin in PANC-1 cells pretreated with MNF (1 μM) for 24 hours and followed with 0.125 μM of doxorubicin treatment for 2 hours. The upper panel of FIG. 5D presents representative immunoblot depicting protein levels of Pgp, BCRP, and lamin A/C in PANC-1 nuclear extracts after cell treatment with 0.5 and 1 μM of MNF for 24 hours. In the lower panel of FIG. 5D, protein bands were quantified by densitometry and the data normalized to lamin A/C levels and plotted relative to cells treated with 0.01% DMSO as control.
Cells were lysed in radioimmuno precipitation buffer containing EGTA and EDTA (Boston BioProducts, Ashland, Mass.) supplemented with protease inhibitor cocktail (Sigma-Aldrich). Protein concentration in clarified lysates was determined using the bicinchoninic acid reagent (Thermo Fisher Scientific). […] All membrane-bound primary antibodies were detected with horseradish peroxidase-conjugated secondary antibodies (Santa Cruz Biotechnology, Dallas, Tex.) and visualized by enhanced chemiluminescence (ECL Plus, GE Healthcare, Piscataway, N.J.). […]

U87MG glioblastoma cells = test: [3H]-thymidine incorporation (doxorubicin cytotoxicity) in U87MG cells; assay type: cell-based; details: Homo sapiens, U-87 MG
Experimental: [^3H]-Thymidine incorporation studies. Cells were seeded in 24-well plates at 2.5×10^4 cells per well and grown for 24 hours at 37° C. The effect of MNF (0-10 μM) on [^3H]-thymidine incorporation into PANC-1, MDA-MB-231, and MCF-7 cells was investigated following procedures previously described in Paul, et al., Cannabinoid receptor activation correlates with the proapoptotic action of the β2-adrenergic agonist (R,R′)-4-methoxy-1-naphthylfenoterol in HepG2 hepatocarcinoma cells, J. Pharmacol. Exp. Ther., vol. 343, pgs 157-166 (2012); and Paul, et al., (R,R′)-4′-methoxy-1-naphthylfenoteroltargets GPR55-mediated ligand internalization and impairs cancer cellmotility, Biochem. Pharmacol., vol. 87, pgs 547-561 (2014). The effect of MNF on doxorubicin cytotoxicity in PANC-1 cells was measured using [^3H]-thymidine incorporation. In these studies, the cells were incubated with either fresh medium containing vehicle (0.01% DMSO) or MNF (1 μM) for 24 hours. […] Cells were washed with PBS, lysed in 600 μt of 0.1 N NaOH, and the radioactivity was measured by liquid scintillation counting. […]
Sigmoidal dose-response curves (IC50 curves) were determined using the ‘nonlinear regression (curve fit)’ model contained within the Prism 4 software package (GraphPad Software, Inc., La Jolla, Calif.) running on a personal computer. […] Data are expressed as relative fold change ±standard deviation. […]

[8] = PANC-1, MNF 1 μM 24 hours, medium replaced, then drug 0-10 μM 24 hours, read-out: calculated IC50 of chemotherapeutic drug, after MNF pretreatment
[9] = PANC-1, vehicle (0.01% DMSO) 24 hours, then drug 0-10 μM 24 hours, read-out: calculated IC50 of chemotherapeutic drug, without MNF pretreatment

`Cc1ccc(-c2n[nH]c3c2C(c2cccc(O)c2)N(c2ccc(C(=O)O)cc2)C3=O)cc1` (centres unmarked) [CID] was tested, and the “constitutive and AM251-induced nuclear accumulation of HIF-1α and phosphoactive forms of PKM2 (Ser37) and β-catenin (Tyr333)” value [1] was “significantly abrogated”, the “nuclear pool of phosphoactive form of PKM2” value [2] was “markedly reduced” and the “activating phosphorylation of AKT” value [3] was “significantly decreased”. The “induction of EGFR, BCRP, PKM2 by AM251” value (GPR55 (PANC-1 cells); PANC-1, 1 μM pretreatment 30 minutes, then AM251 1 μM 24 hours) was “blocked”, the “basal levels of EGFR, BCRP, and PKM2 proteins” value (GPR55 (PANC-1 cells); PANC-1, 1 μM, 24 hours) was “significantly reduced” and the “AM251-induced increase in BCRP expression” value (GPR55 (PANC-1 cells)) was “blocked”.

For `COc1ccc(C[C@@H](C)NC[C@H](O)c2cc(O)cc(O)c2)c2ccccc12` [MNF, (R,R′)-4′-methoxy-1-naphthyl-fenoterol], the IC50 (PANC-1 cells [4]; PANC-1, MNF 0-10 μM, 24 hours, mean±SD, read-out: IC50, inhibition in cell growth) was 0.65 ± 0.25 µM, the “maximum reduction in cell growth” value (PANC-1 cells [4]; PANC-1, MNF 0-10 μM, 24 hours, p<0.001) was 42% and the IC50 ([5]; MDA-MB-231, MNF 24 hours, read-out: IC50, inhibition in cell growth) was 0.106 ± 0.003 µM. For the same compound, the “dose-dependent inhibition in cell growth” value ([5]; MDA-MB-231, MNF 24 hours) was 50%, the “effect on the growth of MCF-7 cells” value (MCF-7 cells) was “no significant effect” and the “constitutive and AM251-induced nuclear accumulation of HIF-1α and phosphoactive forms of PKM2 (Ser37) and β-catenin (Tyr333)” value [1] was “significantly abrogated”. For the same compound, the “nuclear pool of phosphoactive form of PKM2” value [2] was “markedly reduced”, the “uptake and nuclear retention of doxorubicin” value (PANC-1 cells [6]) was “enhancement” and the “uptake and nuclear retention of doxorubicin” value (MDA-MB-231 cells) was “enhanced uptake and nuclear retention”. The “nuclear pool of Pgp and BCRP” value [7] was “marked reduction”, the “activating phosphorylation of AKT” value [3] was “significantly decreased” and the “expression of cancer biomarkers (EGFR, β-catenin, PKM2, cyclin D1, Pgp, BCRP, MRP1, MRP5)” value (GPR55 (PANC-1 cells); PANC-1, MNF 10-1000 nM, 24 hours) was “dose-dependently reduces”. The “AM251-induced increase in BCRP expression” value (GPR55 (PANC-1 cells)) was “blocked”.

In the case of `COc1cccc2c1C(=O)c1c(O)c3c(c(O)c1C2=O)C[C@@](O)(C(=O)CO)C[C@@H]3O[C@H]1C[C@H](N)[C@H](O)[C@H](C)O1` [doxorubicin], the IC50 (PANC-1 cells [4]; [8]) is reported as 0.051 ± 0.002 µM, the IC50 (PANC-1 cells [4]; [9]) is reported as 0.193 ± 0.004 µM and the “fold decrease in calculated IC50 by MNF pretreatment” value (PANC-1 cells [4]; p<0.001) is reported as about 4 fold. It also gave an IC50 ([5]; MDA-MB-231, MNF 1 μM 24 hours, then doxorubicin 0-10 μM 24 hours, p<0.05, read-out: calculated IC50 of doxorubicin, after MNF pretreatment) of 0.255 ± 0.013 µM, an IC50 ([5]; MDA-MB-231, doxorubicin 0-10 μM 24 hours, read-out: calculated IC50 of doxorubicin, without MNF pretreatment) of 0.57 ± 0.014 µM and an IC50 (U87MG glioblastoma cells; MNF 0.01 μM 24 hours, then doxorubicin 24 hours, p<0.001, read-out: calculated IC50 of doxorubicin, after MNF pretreatment) of 0.0011 ± 0.0005 µM. For the same compound, the IC50 (U87MG glioblastoma cells; doxorubicin 24 hours, read-out: calculated IC50 of doxorubicin, without MNF pretreatment) was 0.006 ± 0.0008 µM.

`Nc1ccn([C@@H]2O[C@H](CO)[C@@H](O)C2(F)F)c(=O)n1` [gemcitabine] was tested, and the IC50 (PANC-1 cells [4]; [8]) was 0.153 ± 0.003 µM, the IC50 (PANC-1 cells [4]; [9]) was 0.487 ± 0.003 µM and the “fold decrease in calculated IC50 by MNF pretreatment” value (PANC-1 cells [4]; p<0.001) was about 3 fold.
